The supplement of paper PMC10307832

Tests used:
Test in all cases: relative viability (nuclei count vs DMSO), 5 days (fraction); higher = more cells survive
[1] = compound: C/C(=N\NC(=S)N1CCC1)/C2=CC=CC=N2 + NC(=O)Nc1cc(-c2cccc(F)c2)sc1C(=O)N[C@H]1CCCNC1 [AZD7762] (partner 0.2 µM)
Procedure, shortened: (§1)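 Values are medians from duplicate plates. Each reflects relative viability, defined as the nuclei count of treated wells over that of vehicle wells. Lung cancer cell lines in 1536-well plates were pin-tool dosed one day after seeding with one drug alone or with a fixed anchor-drug dose plus five library-drug doses (not always all listed) in √10 steps, then fixed, stained and imaged at 4× after 5 days.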

[2] = compound: C/C(=N\NC(=S)N1CCC1)/C2=CC=CC=N2 + Nc1ncn([C@H]2C[C@H](O)[C@@H](CO)O2)c(=O)n1 [Decitabine] (partner 2 µM)
Procedure, shortened: as §1

[3] = compound: C/C(=N\NC(=S)N1CCC1)/C2=CC=CC=N2 + O=C(c1cc(Cc2n[nH]c(=O)c3ccccc23)ccc1F)N1CCN(C(=O)C2CC2)CC1 [Olaparib] (partner 8 µM)
Procedure, shortened: as §1

[4] = compound: C/C(=N\NC(=S)N1CCC1)/C2=CC=CC=N2 + CS(=O)(=O)CCNCc1ccc(-c2ccc3ncnc(Nc4ccc(OCc5cccc(F)c5)c(Cl)c4)c3c2)o1 [Lapatinib] (partner 2 µM)
Procedure, shortened: as §1

Cell Line | relative viability ([1]; first compound 0.05 µM) | relative viability ([1]; first compound 0.1581 µM) | relative viability ([1]; first compound 0.5 µM) | relative viability ([1]; first compound 1.581 µM) | relative viability ([1]; first compound 5 µM) | relative viability ([2]; first compound 0.05 µM) | relative viability ([2]; first compound 0.1581 µM) | relative viability ([2]; first compound 0.5 µM) | relative viability ([2]; first compound 1.581 µM) | relative viability ([2]; first compound 5 µM) | relative viability ([3]; first compound 0.05 µM) | relative viability ([3]; first compound 0.1581 µM) | relative viability ([3]; first compound 0.5 µM) | relative viability ([3]; first compound 1.581 µM) | relative viability ([3]; first compound 5 µM) | relative viability ([4]; first compound 0.05 µM) | relative viability ([4]; first compound 0.1581 µM) | relative viability ([4]; first compound 0.5 µM) | relative viability ([4]; first compound 1.581 µM) | relative viability ([4]; first compound 5 µM)
NCI-H3122 | 0.0944 | 0.0773 | 0.115 | 0.13 | 0.114 | 0.0981 | 0.269 | 0.086 | 0.127 | 0.136 | 0.118 | 0.291 | 0.0987 | 0.145 | 0.142 | 0.304 | 0.284 | 0.268 | 0.291 | 0.243
PC-3 [JPC-3] | 0.317 | 0.384 | 0.307 | 0.243 | 0.234 | 0.534 | 0.526 | 0.418 | 0.344 | 0.324 | 0.581 | 0.506 | 0.432 | 0.382 | 0.351 | 0.267 | 0.27 | 0.259 | 0.228 | 0.229
PC-14 | 0.08 | 0.12 | 0.106 | 0.0559 | 0.0985 | 0.0702 | 0.088 | 0.0592 | 0.0503 | 0.0468 | 0.0569 | 0.064 | 0.0532 | 0.0383 | 0.0401 | 0.11 | 0.112 | 0.124 | 0.0912 | 0.0865
RERF-LC-KJ | 0.176 | 0.238 | 0.18 | 0.16 | 0.208 | 0.234 | 0.235 | 0.215 | 0.283 | 0.247 | 0.255 | 0.248 | 0.274 | 0.271 | 0.255 | 0.258 | 0.263 | 0.23 | 0.253 | 0.275
